Source: patent US20170058314A1, “NOVEL METHODOLOGY FOR IDENTIFYING ANTI-PERSISTER ACTIVITY AND ANTIMICROBIAL SUSCEPTIBILITY FOR BORRELIA BURGDORFERI AND OTHER BACTERIA” (priority 2014, published 2017)
Values after ≈ are worked out from the molar mass of the structure shown.

Tests used:
[1] = system: stationary phase B. burgdorferi persisters (strain B31); assay: NCI compound library screen, SYBR Green I/PI assay (plate reader); conditions: for viability at 20 µM: read-out: Residual viable cells (%) 20 μM (SYBR Green I/PI assay), 20 μM, seven day old stationary phase, 7 days
[2] = system: B. burgdorferi (growing, strain B31); conditions: actively growing B. burgdorferi; Feng, Wang, Shi, et al., 2014; cited from earlier work
[3] = system: stationary phase B. burgdorferi persisters (strain B31); assay: epifluorescence microscope counting after SYBR Green I/PI staining, FDA drug screen; conditions: for viability at 50 µM: Borreliella burgdorferi, 168 h, read-out: Residual viable cells (epifluorescence microscope counting)
[4] = system: stationary phase B. burgdorferi persisters (strain B31); assay: NCI compound library rescreen, epifluorescence microscope counting; conditions: Borreliella burgdorferi, 168 h; for viability at 20 µM: read-out: Residual viable cells (%) 20 μM (epifluorescence microscope counting)
[5] = system: round body form of B. burgdorferi; assay: SYBR Green I/PI assay on amoxicillin-induced round body form; conditions: for viability at 50 µM: Borreliella burgdorferi, 168 h, read-out: Residual viable cells (SYBR Green I/PI assay); for Ratios of green/red fluorescence, Primary screening / Ratios of green/red fluorescence, Rescreening (first column) / Ratios of green/red fluorescence, Rescreening (second column): round body form, 50 μM
[6] = system: stationary phase B. burgdorferi persisters (strain B31); assay: SYBR Green I/PI viability assay (plate reader), FDA-approved drug library screen; conditions: for Ratio of Green/Red fluorescence, Primary screening / Ratio of Green/Red fluorescence, Rescreening (first column) / Ratio of Green/Red fluorescence, Rescreening (second column): 7 days, stationary phase; for viability at 50 µM: Borreliella burgdorferi, 168 h, read-out: Residual viable cells (regression equation, SYBR Green I/PI assay)
[7] = system: stationary phase B. burgdorferi; assay: Subculture test of drug-treated stationary phase B. burgdorferi; assay type: cell-based, Borrelia burgdorferi; conditions: for G/R ratio immediately after treatment / G/R ratio after 7 day subculture / G/R ratio after 15 day subculture / Spirochetes after 7 day subculture (microscope counting) / Spirochetes after 15 day subculture (microscope counting): 10 μg/mL; for G/R ratio immediately after treatment: 7 days; for G/R ratio after 7 day subculture / G/R ratio after 15 day subculture / Spirochetes after 7 day subculture (microscope counting) / Spirochetes after 15 day subculture (microscope counting): 7 days treatment, then subculture; for viability at 10 µg/mL: Borreliella burgdorferi, 168 h, read-out: Residual viable cells (epifluorescence microscope counting)
Protocol: Seven-day-old B. burgdorferi culture (1×10^7 spirochetes/mL) (500 μL) was treated with drugs or drug combinations in Eppendorf tubes. After incubation at 33° C. for 7 days without shaking, the cells were collected by centrifugation and rinsed with 1 mL fresh BSK-H medium followed by resuspension in 500 μL fresh BSK-H medium without antibiotics. Then 50 μL of cell suspension was transferred to 1 mL fresh BSK-H medium for subculture at 33° C. for 2 weeks. Cell proliferation was assessed using SYBR Green I/PI assay and bacterial counting chamber (Hausser Scientific Partnership) by microscopy as described above.

[8] = system: round body form of B. burgdorferi; assay: Subculture test of drug-treated round body form
Protocol: For induction of round body form of B. burgdorferi, B. burgdorferi spirochetes (1×10^5 spirochetes/mL) were cultured in BKS-H medium for 6 days without shaking. After the 6-day incubation, amoxicillin at a final concentration of 50 μg/mL was added to the culture for round body form induction. After 72 h induction at 33° C., the round body forms of B. burgdorferi were examined by the microscopy. The round body cells (100 μL) were transferred to 96-well tissue culture microplates for evaluation of the effects of antibiotic treatment.

[9] = system: B. burgdorferi (growing, strain B31); assay: MIC determination, standard microdilution method; assay type: cell-based, Borrelia burgdorferi; conditions: for MIC: Borreliella burgdorferi, growing B. burgdorferi, read-out: MIC
[10] = system: log phase and stationary phase B. burgdorferi culture; assay: Antibiotic exposure assay, SYBR Green I/PI (drugs alone and combinations); conditions: for viability at 10 µg/mL: Borreliella burgdorferi, 168 h, read-out: Live Cell % (residual viable B. burgdorferi), ten-day-old stationary phase culture enriched with micro-colonies, 10 μg/mL each drug, 7 days
Protocol: (§1) To qualitatively determine the effect of antibiotics, 10 μL of each compound from the pre-diluted plate or pre-diluted stock was added to stationary phase B. burgdorferi culture in the 96-well plate. The final volume per well was adjusted to 100 μL at a concentration of 10 μg/mL for each antibiotic. Plates were sealed and placed in a 33° C. incubator for 7 days. The SYBR Green I/PI viability assay was used to assess the live and dead cells after antibiotic exposure as described (Feng, Wang, Shi, et al., 2014). Briefly, 10 μL of SYBR Green I (10,000×stock, Invitrogen) was mixed with 30 μL propidium iodide (PI, 20 mM) into 1.0 mL of sterile dH2O. Then, 10 μL of staining mixture was added to each well and mixed thoroughly. The plates were incubated at room temperature in the dark for 15 minutes followed by plate reading at excitation wavelength at 485 nm and the fluorescence intensity at 535 nm (green emission) and 635 nm (red emission) in microplate reader (HTS 7000 plus Bio Assay Reader, PerkinElmer Inc., USA). With least-square fitting analysis, the regression equation and regression curve of the relationship between percentage of live bacteria and green/red fluorescence ratios was obtained. The regression equation was used to calculate the percentage of live cells in each well of the 96-well plate.
To qualitatively determine the effect of antibiotics, 10 μL of each compound (final concentration 50 μM) from the pre-diluted plate or pre-diluted stock was added to round body form or stationary phase B. burgdorferi culture in the 96-well plate. The final volume per well was adjusted to 100 μL. Plates were sealed and placed in a 33° C. incubator for 7 days. The SYBR Green I/PI viability assay was used to assess the live and dead cells after antibiotic exposure as described (Feng, Wang, Shi, et al., 2014). Briefly, 10 μL of SYBR Green I (10,000×stock, Invitrogen) was mixed with 30 μL propidium iodide (PI, 20 mM, Sigma-Aldrich) into 1.0 mL of sterile dH2O. Then, 10 μL staining mixture was added to each well and mixed thoroughly. The plates were incubated at room temperature in the dark for 15 minutes followed by plate reading at excitation wavelength at 485 nm and the fluorescence intensity at 535 nm (green emission) and 635 nm (red emission) in microplate reader (HTS 7000 plus Bio Assay Reader, PerkinElmer Inc., USA). With least-square fitting analysis, the regression equation and regression curve of the relationship between percentage of live and dead bacteria as shown in green/red fluorescence ratios was obtained. The regression equation was used to calculate the percentage of live cells in each well of the 96-well plate.
Round body form and ten day old stationary phase (in brackets) B. burgdorferi culture was treated with 10 μg/mL drugs or their combinations for 7 days. Residual viable B. burgdorferi was calculated according to the regression equation and ratio of Green/Red fluorescence obtained by SYBR Green I/PI assay as described (Feng, Wang, Shi, et al., 2014). Direct microscopy counting was employed to rectify the results of the SYBR Green I/PI assay. […] Abbreviation: Dox, doxcycline; CefP, cefoperazone; DAP, daptomycin; CefM, cefmetazole; Scp, sulfachlorpyridazine; Art, artemisinin; Nft, nitrofurantoin.

[11] = system: round body form of B. burgdorferi; conditions: 50 µM
[12] = system: log phase E. coli culture; assay: E. coli control, persister frequency by microscope counting after SYBR Green I/PI staining; assay type: cell-based, Escherichia coli; conditions: three hour log phase E. coli, 50 μg/mL amoxicillin for 3 hours
[13] = system: B. burgdorferi log and stationary phase cultures; assay: epi-fluorescence microscope counting after antibiotic exposure (persister frequency, planktonic forms); assay type: cell-based, Borrelia burgdorferi
Protocol: Specimens were examined on a Nikon Eclipse E800 microscope equipped with differential interference contrast (DIC) and epi-fluorescence illumination, and recorded with a Spot slider color camera. Cell proliferation assays were performed by direct counting using a bacterial counting chamber (Hausser Scientific Partnership) and DIC microscopy. SYBR Green I/PI assay was performed to assess the viability of B. burgdorferi. The ratio of live (green) and dead (red) B. burgdorferi was calculated by counting these cells using a bacterial counting chamber and epi-fluorescence microscopy. The three representative images of every sample were captured for quantitative analysis. Image Pro-Plus software was applied for measuring the biomass (fluorescence intensity) of different forms (spirochetes, round body, and microcolony) of B. burgdorferi as previously described (Shopov and Williams, 2000).
as §1
Therefore, the frequency of B. burgdorferi persisters in log phase and stationary phase cultures was assessed using the SYBR Green I/PI viability assay after exposure of the cultures to antimicrobials. E. coli culture was used as a control after exposure to antibiotics to validate the SYBR Green I/PI viability assay for persister frequency assessment.

[14] = system: log phase E. coli culture; assay: E. coli control, persister frequency by standard plate colony count assay; assay type: cell-based, Escherichia coli; conditions: three hour log phase E. coli, 50 μg/mL amoxicillin for 3 hours
[15] = read-out: Activity against persisters (residual viable cell percentage)
[16] = read-out: Residual viable cells (%) 50 μM (epifluorescence microscope counting)
[17] = read-out: Residual viable cells (epifluorescence microscope counting)
[18] = 10 μg/mL drugs or combinations, 7 days
[19] = 10 μg/mL, 7 days treatment, then subculture
[20] = 50 μM, 7-day old stationary phase cells treated for 7 days

| Structure (SMILES) | viability at 20 µM ([1]; Borreliella burgdorferi, 168 h) [%] | viability at 50 µM [3] [%] | viability at 50 µM [4, 15] [%] | viability at 20 µM [4] [%] | viability at 50 µM [4, 16] [%] | viability at 50 µM [4, 17] [%] | viability at 50 µM [5] [%] | Ratios of green/red fluorescence, Primary screening ([5]; 7 days) | Ratios of green/red fluorescence, Rescreening (first column) ([5]; 7 days) | Ratios of green/red fluorescence, Rescreening (second column) ([5]; 7 days) | Ratio of Green/Red fluorescence, Primary screening ([6]; 50 μM) | Ratio of Green/Red fluorescence, Rescreening (first column) ([6]; 50 μM) | Ratio of Green/Red fluorescence, Rescreening (second column) ([6]; 50 μM) | viability at 50 µM [6] [%] | G/R ratio immediately after treatment [7] | G/R ratio after 7 day subculture [7] | G/R ratio after 15 day subculture [7] | Spirochetes after 7 day subculture (microscope counting) [7] | Spirochetes after 15 day subculture (microscope counting) [7] | viability at 10 µg/mL [7] [%] | other results |
| --- | --- | --- | --- | --- | --- | --- | --- | --- | --- | --- | --- | --- | --- | --- | --- | --- | --- | --- | --- | --- | --- |
| CCCCCCCCCC(=O)N[C@@H](Cc1c[nH]c2ccccc12)C(=O)N[C@H](CC(N)=O)C(=O)N[C@@H](CC(=O)O)C(=O)N[C@@H]1C(=O)NCC(=O)N[C@@H](CCCN)C(=O)N[C@@H](CC(=O)O)C(=O)N[C@H](C)C(=O)N[C@@H](CC(=O)O)C(=O)NCC(=O)N[C@H](CO)C(=O)N[C@@H]([C@H](C)CC(=O)O)C(=O)N[C@@H](CC(=O)c2ccccc2N)C(=O)O[C@@H]1C [Daptomycin] | 32 | 35 | 18 | 25 | 18 | 18 | 19 | 5.90 | 6.09 | 5.93 | 6.10 | 6.20 | 6.09 | 28 | 5.85 | 7.01 | 7.11 | 3.1 × 10^6 | 5 × 10^6 | 55 | viability at 50 µM ([1]; Borreliella burgdorferi, 168 h, read-out: Residual viable cells (SYBR Green I/PI assay), 50 μM, seven day old stationary phase culture, 7 days): 23%; MIC (previous study) [2]: 12.5 to 25 µg/mL; Live cell %, round body form [5, 18]: 17%; Spirochetes number After 10 day subculture [8, 19]: 5 × 10^5; Spirochetes number After 20 day subculture [8, 19]: 5 × 10^6; viability at 10 µg/mL ([8]; Borreliella burgdorferi, 168 h, read-out: Residual viable cells): 18%; MIC [9]: 12.5 to 25 µg/mL (≈ 7.71 to 15.4 µM); Live cell %, ten day old stationary phase culture (in brackets) [10, 18]: 48%; Live Cell % (residual viable B. burgdorferi) ([10]; Borrelia burgdorferi, 7 days, 10 μg/mL): 52%; viability at 10 µg/mL [10]: 48% |
| CO[C@@H]1[C@@H](O[C@@H]2O[C@H](C)[C@@H](O[C@H]3C[C@@](C)(O)[C@@H](OC(=O)CC(C)C)[C@H](C)O3)[C@H](N(C)C)[C@H]2O)[C@@H](CC=O)C[C@@H](C)C(=O)/C=C/[C@@H]2O[C@@H]2C[C@@H](C)OC(=O)C[C@H]1OC(C)=O [Carbomycin] |  |  |  |  |  |  |  |  |  |  | 6.37 | 6.81 | 6.32 |  |  |  |  |  |  |  | Residual viable cells (epifluorescence microscope counting) [3, 20]: 41%; Residual viable cells (regression equation, SYBR Green I/PI assay) [6, 20]: 37%; Residual viable cells (SYBR Green I/PI assay) [11]: 43%; sensitivity of log phase / multiplying B. burgdorferi (words, FIG. 12) ([9]; MIC test): very sensitive |
| N[C@@H](C(=O)N[C@@H]1C(=O)N2C(C(=O)O)=C(Cl)CC[C@H]12)c1ccccc1 [Loracarbef] |  |  |  |  |  |  |  | 6.35 | 6.25 | 6.24 |  |  |  |  |  |  |  |  |  |  | Residual viable cells (SYBR Green I/PI assay) [11]: 33% |
| CC1(C)S[C@@H]2[C@H](NC(=O)[C@H](N)c3ccc(O)cc3)C(=O)N2[C@H]1C(=O)O [Amoxicillin] | 77 | 76 | 77 | 77 | 77 | 77 | 46 | 6.53 | 6.59 | 6.52 | 7.98 | 7.86 | 7.82 | 76 | 7.16 | 6.32 | 7.23 | 1 × 10^6 | 6 × 10^6 | 80 | Residual viable cells (SYBR Green I/PI assay) ([1]; 50 μM, seven day old stationary phase culture, 7 days): 71%; E. coli control Persister frequency (epi-fluorescence microscope counting after SYBR Green I/PI staining) [12]: 4.4%; E. coli control Persister frequency (epi-fluorescence microscope counting after SYBR Green I/PI staining) ([12]; listed as amoxicillin): 4.4%; Spirochetes after 15 day subculture (microscope counting) ([7]; listed as amoxicillin): ~5×10^6; persister frequency (percentage of live cells after antibiotic treatment, in brackets) ([13]; 3-day log phase culture): (9.6%); persister frequency (in brackets) ([13]; 7-day stationary phase culture): (25%); persister frequency (in brackets) ([13]; 10-day stationary phase culture): (~27%); E. coli control Persister frequency (standard plate colony count assay) [14]: 0.9%; E. coli control Persister frequency (standard plate colony count assay) ([14]; listed as amoxicillin): 0.9%; MIC [9]: ≤ 0.25 µg/mL; viability at 10 µg/mL [10]: 75% |
